EC50 data for 22 molecules are collected here from patent US12110294B2, “CD73 compounds” (Gilead Sciences, Inc., priority 2020, dated 2024).

This experiment deals with T1, CD73 activity in MDA-MB-231-GFP cells (Homo sapiens, UniProt P21589).
T1 construct: endogenous in cells; host or cells: MDA-MB-231-GFP cells
T1 sequence (P21589 27-549): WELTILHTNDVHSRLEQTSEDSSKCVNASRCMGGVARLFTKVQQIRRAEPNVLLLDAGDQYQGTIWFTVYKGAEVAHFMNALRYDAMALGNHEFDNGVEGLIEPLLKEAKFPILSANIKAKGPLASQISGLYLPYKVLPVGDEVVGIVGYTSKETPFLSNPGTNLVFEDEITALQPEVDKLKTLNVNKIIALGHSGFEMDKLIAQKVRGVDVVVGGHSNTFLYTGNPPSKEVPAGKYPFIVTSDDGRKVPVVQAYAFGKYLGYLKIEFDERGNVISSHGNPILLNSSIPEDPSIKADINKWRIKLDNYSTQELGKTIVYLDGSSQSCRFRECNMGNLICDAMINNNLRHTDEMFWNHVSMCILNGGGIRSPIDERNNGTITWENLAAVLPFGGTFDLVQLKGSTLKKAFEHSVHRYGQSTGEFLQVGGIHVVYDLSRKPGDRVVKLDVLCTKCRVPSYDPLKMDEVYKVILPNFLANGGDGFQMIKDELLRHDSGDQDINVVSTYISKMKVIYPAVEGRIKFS
Description: MDA-MB-231 Cell Based CD73 Activity Assay (DMEM). The conditions noted are these: 3000 cells per well, DMEM medium with 10% human plasma, overnight compound treatment, AMP 200 uM.
The term EC50 denotes the concentration at which the effect is half-maximal. A lower EC50 goes with higher potency in that assay. In turn, `N#Cc1ccc([C@H]2C[C@@H]2c2cc(-c3c[nH]c(=O)[nH]c3=O)nn3ccnc23)cc1OC(F)(F)F` (racemic) [Example 413, 4-((2S,2S)-2-(6-(2,4-dioxo-1,2,3,4-tetrahydropyrimidin-5-yl)imidazo[1,2-b]pyridazin-8-yl)cyclopropyl)-2-(trifluoromethoxy)benzonitrile] had an EC50 of 34.6 nM.
On to `N#Cc1cc([C@H]2C[C@@H]2c2cc(-c3c[nH]c(=O)[nH]c3=O)nn3ccnc23)ccc1OC(F)(F)F` (racemic) [Example 414, 5-((2S,2S)-2-(6-(2,4-dioxo-1,2,3,4-tetrahydropyrimidin-5-yl)imidazo[1,2-b]pyridazin-8-yl)cyclopropyl)-2-(trifluoromethoxy)benzonitrile], for which a half-maximal response (EC50) required 43.8 nM.
In turn, `O=c1[nH]cc(-c2cc(N3CC(Oc4ccc(C(F)(F)F)cn4)C(F)(F)C3)c3ncnn3n2)c(=O)[nH]1` (racemic) [Example 432, 5-(8-(3,3-difluoro-4-((5-(trifluoromethyl)pyridin-2-yl)oxy)pyrrolidin-1-yl)-[1,2,4]triazolo[1,5-b]pyridazin-6-yl)pyrimidine-2,4(1H,3H)-dione] had an EC50 of 2.58 nM.
`O=c1[nH]cc(-c2cc(N3CCC(CC(F)(F)F)C3)c3nccn3n2)c(=O)[nH]1` (racemic) [Example 452, 5-(8-(3-(2,2,2-trifluoroethyl)pyrrolidin-1-yl)imidazo[1,2-b]pyridazin-6-yl)pyrimidine-2,4(1H,3H)-dione] displayed an EC50 of 94.8 nM.
Consider `O=c1[nH]cc(-c2cc(N3CCC(CC(F)F)C3)c3nccn3n2)c(=O)[nH]1` (racemic) [Example 453, 5-(8-(3-(2,2-difluoroethyl)pyrrolidin-1-yl)imidazo[1,2-b]pyridazin-6-yl)pyrimidine-2,4(1H,3H)-dione], for which the midpoint of the response, the EC50, lay at 112 nM.
With `O=c1[nH]cc(-c2cc([C@H]3C[C@@H]3c3nc4ccccc4[nH]3)c3nccn3n2)c(=O)[nH]1` (racemic) [Example 461, 5-(8-((1S,2S)-2-(1H-benzo[d]imidazol-2-yl)cyclopropyl)imidazo[1,2-b]pyridazin-6-yl)pyrimidine-2,4(1H,3H)-dione], the EC50 came out at 11.6 nM.
The value for `O=c1[nH]cc(-c2cc([C@H]3C[C@@H]3c3ccc(F)c(F)c3F)c3nccn3n2)c(=O)[nH]1` (racemic) [Example 464, 5-(8-((2S,2S)-2-(2,3,4-trifluorophenyl)cyclopropyl)imidazo[1,2-b]pyridazin-6-yl)pyrimidine-2,4(1H,3H)-dione] was 16.2 nM; that for `N#Cc1ccc(F)c([C@H]2C[C@@H]2c2cc(-c3c[nH]c(=O)[nH]c3=O)nn3ccnc23)c1` (racemic) [Example 466, 3-((2S,2S)-2-(6-(2,4-dioxo-1,2,3,4-tetrahydropyrimidin-5-yl)imidazo[1,2-b]pyridazin-8-yl)cyclopropyl)-4-fluorobenzonitrile] was 20 nM.
Regarding `O=c1[nH]cc(-c2cc([C@H]3C[C@@H]3c3c(F)ccc(F)c3F)c3nccn3n2)c(=O)[nH]1` (racemic) [Example 468, 5-(8-((2S,2S)-2-(2,3,6-trifluorophenyl)cyclopropyl)imidazo[1,2-b]pyridazin-6-yl)pyrimidine-2,4(1H,3H)-dione], the EC50 stood at 13.3 nM.
`O=c1[nH]cc(-c2cc([C@H]3C[C@@H]3c3cc4c(cn3)cnn4CC(F)(F)F)c3ncc(Cl)n3n2)c(=O)[nH]1` (racemic) [Example 471, 5-(3-chloro-8-((2S,2S)-2-(1-(2,2,2-trifluoroethyl)-1H-pyrazolo[4,3-c]pyridin-6-yl)cyclopropyl)imidazo[1,2-b]pyridazin-6-yl)pyrimidine-2,4(1H,3H)-dione] yielded a concentration for a half-maximal effect (EC50) of 0.24 nM.
Consider `CC1(C)C(=O)N(CC(F)(F)F)c2cc([C@H]3C[C@@H]3c3cc(-c4c[nH]c(=O)[nH]c4=O)nn4ccnc34)ncc21` (racemic) [Example 718, 5-[8-[(1S,2S)-2-[3,3-dimethyl-2-oxo-1-(2,2,2-trifluoroethyl)pyrrolo[3,2-c]pyridin-6-yl]cyclopropyl]imidazo[1,2-b]pyridazin-6-yl]-1H-pyrimidine-2,4-dione], for which the midpoint of the response, the EC50, lay at 0.33 nM.
The molecule `O=c1[nH]cc(-c2cc([C@H]3C[C@@H]3c3cc(OCC(F)(F)F)c4ncccc4c3)c3nccn3n2)c(=O)[nH]1` (racemic) [Example 732, 5-(8-((2S,2S)-2-(8-(2,2,2-trifluoroethoxy)quinolin-6-yl)cyclopropyl)imidazo[1,2-b]pyridazin-6-yl)pyrimidine-2,4(1H,3H)-dione] showed a concentration giving a half-maximal response (EC50) of 2.52 nM.
Turning to `O=C1N(CC2(F)CC2)c2cc([C@H]3C[C@@H]3c3cc(-c4c[nH]c(=O)[nH]c4=O)nn4c(F)cnc34)ccc2C12CC2` (racemic) [Example 735, 5-(3-fluoro-8-((2S,2S)-2-(1′-((1-fluorocyclopropyl)methyl)-2′-oxospiro[cyclopropane-1,3′-indolin]-6′-yl)cyclopropyl)imidazo[1,2-b]pyridazin-6-yl)pyrimidine-2,4(1H,3H)-dione], a half-maximal effect (EC50) was put at 0.38 nM.
For `O=C1N(CC(F)(F)F)c2cc([C@H]3C[C@@H]3c3cc(-c4c[nH]c(=O)[nH]c4=O)nn4ccnc34)c(F)cc2C12CC2` (racemic) [Example 748, 5-(8-((2S,2S)-2-(5′-fluoro-2′-oxo-1′-(2,2,2-trifluoroethyl)spiro[cyclopropane-1,3′-indolin]-6′-yl)cyclopropyl)imidazo[1,2-b]pyridazin-6-yl)pyrimidine-2,4(1H,3H)-dione], it took 1.76 nM to reach a half-maximal effect (EC50).
For the molecule `O=C(c1ccc([C@H]2C[C@@H]2c2cc(-c3c[nH]c(=O)[nH]c3=O)nn3c(F)cnc23)cc1)N1CC(F)(F)C1` (single isomer, unassigned) [Example 313], the half-maximal effective concentration (EC50) came to 9.78 nM.
For `O=c1[nH]cc(-c2cc([C@H]3C[C@@H]3c3cnn(C(F)F)c3)c3ncc(F)n3n2)c(=O)[nH]1` (single isomer, unassigned) [Example 371], a half-maximal effect (EC50) was put at 17.9 nM.
Regarding `O=c1[nH]cc(-c2cc([C@H]3C[C@@H]3c3ccc(OC(F)(F)F)cn3)c3nccn3n2)c(=O)[nH]1` (single isomer, unassigned) [Example 373], the EC50 amounted to 9.61 nM.
In turn, `O=C1N(CC(F)(F)F)c2cc([C@H]3C[C@@H]3c3cc(-c4c[nH]c(=O)[nH]c4=O)nn4ccnc34)ccc2C12CC2` (single isomer, unassigned) [Example 391] displayed an EC50 of 0.1 nM.
On to `O=C1N(CC(F)(F)F)c2cc([C@H]3C[C@@H]3c3cc(-c4c[nH]c(=O)[nH]c4=O)nn4c(Cl)cnc34)ccc2C12CC2` (single isomer, unassigned) [Example 740], for which the concentration for a half-maximal effect (EC50) amounted to 0.28 nM.
Molecule `O=C1N(CC(F)(F)F)c2cc([C@H]3C[C@@H]3c3cc(-c4c[nH]c(=O)[nH]c4=O)nn4c(Cl)c(Cl)nc34)ccc2C12CC2` (single isomer, unassigned) [Example 741] showed an EC50 of 0.68 nM.
`O=c1[nH]cc(-c2cc([C@H]3C[C@@H]3c3cc4c(cn3)cnn4CC(F)(F)F)c3ncc(F)n3n2)c(=O)[nH]1` [Example 611, 5-(3-fluoro-8-((2S,2S)-2-(1-(2,2,2-trifluoroethyl)-1H-pyrazolo[4,3-c]pyridin-6-yl)cyclopropyl)imidazo[1,2-b]pyridazin-6-yl)pyrimidine-2,4(1H,3H)-dione] came in with a concentration for a half-maximal effect (EC50) of 0.07 nM.
For the molecule `O=c1[nH]cc(-c2cc(N3C[C@H]4CC[C@@H]3C4)c3nccn3n2)c(=O)[nH]1` [Example 642, 5-(8-((1R,4S)-2-azabicyclo[2.2.1]heptan-2-yl)imidazo[1,2-b]pyridazin-6-yl)pyrimidine-2,4(1H,3H)-dione], the half-maximal effective concentration (EC50) was 154 nM.
